Laboratory results from US20250114486A1, “MARKED FATTY ACID DERIVATIVE, PRECURSOR COMPOUND THEREOF, AND USE THEREOF IN CONTRAST AGENT” (BEIJING NORMAL UNIVERSITY, priority 2022, published 2025).
Where two headings read alike, the source gives them in different places. Each block holds one compound with its values, some of them ahead of it.

Tests used:
[1] = female SD rats, cited from earlier work
[2] = In vivo biodistribution in female Kunming mice; details: for Biodistribution: Large Intestine / Biodistribution: Small Intestine / Biodistribution: Stomach: unit % ID
Experimental: Female Kunming mice (20-22 g, n=3) were fasted for 12 h before the experiment, and the purified radioactive ^99mTc complex 130 was dissolved in a normal saline (containing 10% ethanol) solution (about 100 μCi/mL). Female Kunming mice were injected with 100 μL of the above solution through the tail vein, and the mice were killed by cervical dislocation at 5, 15, 30, 60, and 120 min post-injection, respectively. Blood, brain, heart, liver, spleen, lung, kidney, muscle, bone, large intestine, small intestine, stomach and tail were collected, weighed and counted, and the count distribution of each tissue and organ was calculated (unit: % ID/g, the unit of large intestine, small intestine and stomach was % ID), and the data were the mean±standard deviation of three mice in each time phase. At the same time, 100 μL of the above solution was diluted to 10 mL, which was used as the % ID without deducting the tail count.
The corresponding radioactive ^99mTc complex 158 as the typical compounds of the general formula V in this application was selected to conduct an in vivo biodistribution study in female Kunming mice. The specific experimental method was shown in the experimental method of “In vivo biodistribution study of radioactive ^99mTc complex 130 in female Kunming mice” in Example 7 above.

[3] = 30 min after injection, reference 3
[4] = 30 min post-injection, reference 2
[5] = 60 min after injection, reference 2
[6] = 60 min after injection, reference 3
[7] = 60 min post-injection, reference 1
[8] = 60 min post-injection, reference 2
[9] = 120 min after injection, reference 3
[10] = 120 min post-injection, reference 1

SMILES: [99Tc].[C-]#[N+]CC(C)(C)OC.[C-]#[N+]CC(C)(C)OC.[C-]#[N+]CC(C)(C)OC.[C-]#[N+]CC(C)(C)OC.[C-]#[N+]CC(C)(C)OC.[C-]#[N+]CC(C)(C)OC [^99mTc-MIBI]
- absolute myocardial uptake value ([1]; 10 min after injection, reference 2): 3.26±0.18 % ID/g
- absolute myocardial uptake value ([1]; 10 min post-injection, reference 1): 3.70 % Dose/g
- absolute myocardial uptake value ([1]; 20 min after injection, reference 2): 3.07 0.21 % ID/g
- absolute myocardial uptake value ([1]; 30 min after injection, reference 2): 3.13±0.12 % ID/g
- Heart-to-Blood ratio [1, 3]: 114.6±34.70
- absolute myocardial uptake value [1, 3]: 3.16±0.56 % ID/g
- absolute myocardial uptake value ([1]; 30 min post-injection, reference 1): 3.16 % Dose/g
- Heart-to-Blood ratio [1, 4]: 104.30
- Heart-to-Lungs ratio [1, 4]: 4.66±0.24
- Heart-to-Lungs ratio ([1]; 30 min post-injection, reference 3): 3.57±0.72
- Heart-to-Liver ratio [1, 5]: 2.65±0.22
- absolute myocardial uptake value [1, 5]: 3.29±0.12 % ID/g
- Heart-to-Blood ratio [1, 6]: 137.80±35.00
- Heart-to-Liver ratio [1, 6]: 4.25±0.84
- absolute myocardial uptake value [1, 6]: 3.14±0.42 % ID/g
- Heart-to-Liver ratio [1, 7]: 2.04±0.17
- Heart-to-Lungs ratio [1, 7]: 6.77±0.55
- absolute myocardial uptake value [1, 7]: 3.04 % Dose/g
- Heart-to-Blood ratio [1, 8]: 164.50
- Heart-to-Lungs ratio [1, 8]: 7.32±0.28
- Heart-to-Lungs ratio ([1]; 60 min post-injection, reference 3): 6.41±1.25
- Heart-to-Blood ratio [1, 9]: 209.00±12.40
- Heart-to-Liver ratio [1, 9]: 4.52±1.57
- absolute myocardial uptake value [1, 9]: 2.83±0.25 % ID/g
- Heart-to-Liver ratio [1, 10]: 2.96±0.34
- Heart-to-Lungs ratio [1, 10]: 6.48±0.51
- Heart-to-Lungs ratio ([1]; 120 min post-injection, reference 3): 7.97±1.89

- heart-to-blood ratios (assessment) [2]: moderate level
- heart-to-lungs ratios (assessment) [2]: moderate level
- myocardial clearance [2]: fast
- Biodistribution: Blood ([2]; 5 min post-injection): 13.21 ± 2.84 ID %/g
- Biodistribution: Bone ([2]; 5 min post-injection): 2.31 ± 0.36 ID %/g
- Biodistribution: Brain ([2]; 5 min post-injection): 0.39 ± 0.14 ID %/g
- Biodistribution: Heart ([2]; 5 min post-injection): 4.19 ± 0.10 ID %/g
- Biodistribution: Kidney ([2]; 5 min post-injection): 7.80 ± 1.46 ID %/g
- Biodistribution: Liver ([2]; 5 min post-injection): 37.80 ± 6.80 ID %/g
- Biodistribution: Lungs ([2]; 5 min post-injection): 5.91 ± 0.89 ID %/g
- Biodistribution: Muscle ([2]; 5 min post-injection): 1.82 ± 0.16 ID %/g
- Biodistribution: Spleen ([2]; 5 min post-injection): 1.55 ± 0.01 ID %/g
- Heart-to-Blood ratio ([2]; 5 min post-injection): 0.32
- Heart-to-Liver ratio ([2]; 5 min post-injection): 0.11
- Heart-to-Lungs ratio ([2]; 5 min post-injection): 0.71
- Biodistribution: Large Intestine ([2]; 5 min post-injection): 1.04 ± 0.37 % ID
- Biodistribution: Small Intestine ([2]; 5 min post-injection): 5.39 ± 0.84 % ID
- Biodistribution: Stomach ([2]; 5 min post-injection): 0.54 ± 0.19 % ID
- Biodistribution: Blood ([2]; 15 min post-injection): 5.47 ± 0.09 ID %/g
- Biodistribution: Bone ([2]; 15 min post-injection): 1.04 ± 0.38 ID %/g
- Biodistribution: Brain ([2]; 15 min post-injection): 0.14 ± 0.05 ID %/g
- Biodistribution: Heart ([2]; 15 min post-injection): 1.63 ± 0.02 ID %/g
- Biodistribution: Kidney ([2]; 15 min post-injection): 4.59 ± 0.68 ID %/g
- Biodistribution: Liver ([2]; 15 min post-injection): 33.35 ± 0.37 ID %/g
- Biodistribution: Lungs ([2]; 15 min post-injection): 2.69 ± 0.70 ID %/g
- Biodistribution: Muscle ([2]; 15 min post-injection): 1.10 ± 0.22 ID %/g
- Biodistribution: Spleen ([2]; 15 min post-injection): 0.86 ± 0.28 ID %/g
- Heart-to-Blood ratio ([2]; 15 min post-injection): 0.30
- Heart-to-Liver ratio ([2]; 15 min post-injection): 0.05
- Heart-to-Lungs ratio ([2]; 15 min post-injection): 0.61
- Biodistribution: Large Intestine ([2]; 15 min post-injection): 0.67 ± 0.15 % ID
- Biodistribution: Small Intestine ([2]; 15 min post-injection): 16.67 ± 2.60 % ID
- Biodistribution: Stomach ([2]; 15 min post-injection): 0.46 ± 0.13 % ID
- Biodistribution: Blood ([2]; 30 min post-injection): 1.20 ± 0.1 ID %/g
- Biodistribution: Bone ([2]; 30 min post-injection): 0.37 ± 0.1 ID %/g
- Biodistribution: Brain ([2]; 30 min post-injection): 0.1 ± 0.04 ID %/g
- Biodistribution: Heart ([2]; 30 min post-injection): 0.91 ± 0.11 ID %/g
- Biodistribution: Kidney ([2]; 30 min post-injection): 2.22 ± 0.2 ID %/g
- Biodistribution: Liver ([2]; 30 min post-injection): 22.5 ± 3.2 ID %/g
- Biodistribution: Lungs ([2]; 30 min post-injection): 0.9 ± 0.04 ID %/g
- Biodistribution: Muscle ([2]; 30 min post-injection): 0.46 ± 0.1 ID %/g
- Biodistribution: Spleen ([2]; 30 min post-injection): 0.55 ± 0.1 ID %/g
- Heart-to-Blood ratio ([2]; 30 min post-injection): 0.76
- Heart-to-Liver ratio ([2]; 30 min post-injection): 0.04
- Heart-to-Lungs ratio ([2]; 30 min post-injection): 1.00
- Biodistribution: Large Intestine ([2]; 30 min post-injection): 1.25 ± 0.1 % ID
- Biodistribution: Small Intestine ([2]; 30 min post-injection): 20.9 ± 4.6 % ID
- Biodistribution: Stomach ([2]; 30 min post-injection): 0.25 ± 0.1 % ID
- Biodistribution: Blood ([2]; 60 min post-injection): 0.42 ± 0.03 ID %/g
- Biodistribution: Bone ([2]; 60 min post-injection): 0.24 ± 0.04 ID %/g
- Biodistribution: Brain ([2]; 60 min post-injection): 0.06 ± 0.01 ID %/g
- Biodistribution: Heart ([2]; 60 min post-injection): 0.67 ± 0.09 ID %/g
- Biodistribution: Kidney ([2]; 60 min post-injection): 1.20 ± 0.10 ID %/g
- Biodistribution: Liver ([2]; 60 min post-injection): 22.8 ± 1.20 ID %/g
- Biodistribution: Lungs ([2]; 60 min post-injection): 0.50 ± 0.02 ID %/g
- Biodistribution: Muscle ([2]; 60 min post-injection): 0.31 ± 0.06 ID %/g
- Biodistribution: Spleen ([2]; 60 min post-injection): 0.24 ± 0.06 ID %/g
- Heart-to-Blood ratio ([2]; 60 min post-injection): 1.60
- Heart-to-Liver ratio ([2]; 60 min post-injection): 0.03
- Heart-to-Lungs ratio ([2]; 60 min post-injection): 1.34
- Biodistribution: Large Intestine ([2]; 60 min post-injection): 1.31 ± 0.27 % ID
- Biodistribution: Small Intestine ([2]; 60 min post-injection): 34.24 ± 3.12 % ID
- Biodistribution: Stomach ([2]; 60 min post-injection): 0.38 ± 0.05 % ID
- Biodistribution: Blood ([2]; 120 min post-injection): 0.26 ± 0.01 ID %/g
- Biodistribution: Bone ([2]; 120 min post-injection): 0.15 ± 0.05 ID %/g
- Biodistribution: Brain ([2]; 120 min post-injection): 0.03 ± 0.02 ID %/g
- Biodistribution: Heart ([2]; 120 min post-injection): 0.52 ± 0.01 ID %/g
- Biodistribution: Kidney ([2]; 120 min post-injection): 0.80 ± 0.07 ID %/g
- Biodistribution: Liver ([2]; 120 min post-injection): 13.81 ± 0.59 ID %/g
- Biodistribution: Lungs ([2]; 120 min post-injection): 0.32 ± 0.06 ID %/g
- Biodistribution: Muscle ([2]; 120 min post-injection): 0.21 ± 0.03 ID %/g
- Biodistribution: Spleen ([2]; 120 min post-injection): 0.15 ± 0.07 ID %/g
- Heart-to-Blood ratio ([2]; 120 min post-injection): 2.00
- Heart-to-Liver ratio ([2]; 120 min post-injection): 0.04
- Heart-to-Lungs ratio ([2]; 120 min post-injection): 1.63
- Biodistribution: Large Intestine ([2]; 120 min post-injection): 1.02 ± 0.22 % ID
- Biodistribution: Small Intestine ([2]; 120 min post-injection): 19.83 ± 1.14 % ID
- Biodistribution: Stomach ([2]; 120 min post-injection): 0.47 ± 0.10 % ID
- absolute myocardial uptake (assessment) ([2]; after tail vein injection): low
SMILES: COC(C)(C)C[N+]#[C][99Tc-5]([C]#[N+]CC(C)(C)OC)([C]#[N+]CC(C)(C)OC)([C]#[N+]CC(C)(C)OC)([C]#[N+]CC(C)(C)OC)[C]#[N+]CC(C)(C)OCCCS(=O)(=O)CCCCCS(=O)(=O)CCCSCCCCC(=O)O [^99mTc complex 158]
